The nature of series [1]: ITA concentration in BAL after intranasal supplementation (LC-MS). Format: in vivo. Particulars: mouse, bronchoalveolar lavage fluid (BAL), other: intranasal, 20 µL of saline containing 1 mM ITA; 0.5 hours after intranasal ITA supplementation. As for the experimental part:
The concentrations of urea in plasma and BAL were determined using a urea assay kit (Solarbio). For ITA determination, samples were extracted by 80% (vol/vol) chilled (–80°C) methanol and analyzed with an ultra-high-performance liquid chromatograph (Acquity UPLC I-Class, Waters) coupled to a triple quadrupole mass spectrometer (Xevo TQ-XS, Waters). For α-KG determination, samples were lyophilized and derived by methoxyamine (MilliporeSigma) and N-methyl-N-[tert-butyldimethylsilyl] trifluoroacetamide (MilliporeSigma) in pyridine (MilliporeSigma). The derivatized sample was injected into an Agilent 7890A-5975C GC-MS system with an HP-5MS column.
Supplementary Figure 8. ITA level is positively correlated with Mucin 5b or β-defensin 1 concentration in BAL from mice after P. aeruginosa infection
A. ITA concentration in BAL was determined by LC-MS after intranasal delivery of 20μL saline containing PAO1 and 1mM ITA (n=3-4).B-C. Comparison of Mucin 5b (B) and β-defensin1 (C) concentration in BAL of P. aeruginosainfected mice with indicated genotypes (n=4-10). Significance is determined by paired t-test. n.s., no significance. D-E. Correlation analysis of ITA concentration and Mucin 5b (D) or β-defensin1 concentration (E) in BAL ofP. aeruginosainfected WT mice. […]

The target of the next series is human OXGR1 (Homo sapiens, UniProt Q96P68). Nature of the series: cAMP GloSensor assay in HEK293 cells expressing human OXGR1. The series is classed as cell-based. Particulars: 0.5 mM ligand, Gs/Gi coupling. As for the experimental part:
For the GloSensor assay, HEK293 cells stably expressing pGloSensor-22F were transfected with GPCR plasmids. Thirty-six hours after transfection, cells were trypsinized and resuspended at a density of 2.5 × 10^5 cells/mL in HBSS supplemented with 10 mM HEPES, 0.5% BSA, 2% GloSensor cAMP Reagent stock solution (Promega), and 300 μM IBMX, and loaded with GloSensor substrates for 2 hours. Cell suspensions (100 μL) were aliquoted onto 96-well plates. Cells were treated with 0.5 mM of the indicated ligand or 1 μM forskolin, and luminance was recorded.

As for `C=C(CC(=O)O)C(=O)O` [ITA, itaconate], the concentration at 0.5 h in series [1] fell in the range of 200 to 300 nM. Also, the “intracellular cAMP” value at human OXGR1 is listed as “did not affect intracellular cAMP”.

(Values after PMC10014103, “The immunometabolite itaconate stimulates OXGR1 to promote mucociliary clearance during the pulmonary innate immune response” (The Journal of Clinical Investigation, 2023).)
